Data on one compound can be found in patent EP4702979A1, “USE OF COMPOUND IN PREVENTION OR TREATMENT OF RADIATION-INDUCED BRAIN INJURY” (Guangzhou Cellprotek Pharmaceutical Co., Ltd, priority 2023, dated 2024).

Where two headings read alike, the source gives them in different places.

Data set [1] in a line: Animal weighing in radiation-induced brain injury model. The class given is in vivo, C57BL/6 mice. To be noted: full 8-week YC-6 administration, 60mg/kg/d; weighed once a week. How it is done: (§1) Table 1. Animal grouping and treatment methods
Weighing was performed once a week before and after the gamma ray radiation model construction for 8 weeks.

Data set [2] has as its system gamma knife irradiation induced focal radiation-induced brain injury. To be noted: MRI 8 weeks after 50 Gy gamma ray radiation, Mean±SEM, n=5, RBI+Saline model 15.28 ± 0.98, P<0.05 vs model.
Description: as §1
(§2) The model constructing method for focal radiation-induced brain injury caused by gamma ray radiation was modified based on reported literature. After anesthesia of mouse by intraperitoneal injection of 0.1% pentobarbital sodium solution, the body was fixed on a customized platform, and the mouse skull was scanned by X-ray computed tomography scanner for imaging processing (radiation energy of 80kV, imaging range of 250mm, layer thickness and interlayer spacing of 0.625mm, pixel size of 0.49*0.49mm). The animal irradiation position and gamma knife irradiation depth were determined based on the scanning imaging results. The mouse and customized platform were placed in a stereotactic gamma ray irradiation system for irradiation, with the irradiation site in the left thalamus of the mouse. The coordinates of the irradiation center positioning point were: 2mm behind the anterior fontanelle (AP), 2mm left of the midline (L), and 2mm below the skull dura mater (dorsal ventral DV).

Data set [3] deals with GFAP positive astrocytes. Particulars: 60mg/kg/d YC-6 for 8 weeks; thalamus of the lesion, 8 weeks after gamma knife radiation; Mean±SEM, n=5; normal 57.80 ± 2.69, model 558.20 ± 10.07; P<0.0001 vs model.
Description: as §1, §2

The test system of data set [4] is CC1 positive oligodendrocytes. To be noted: 60mg/kg/d YC-6 for 8 weeks; thalamus of the lesion, 8 weeks after gamma knife radiation; Mean±SEM, n=5; normal 1608.00±47.92, model 200.60±21.47; P<0.0001 vs model.
Description: as §1, §2

Data set [5] deals with MAG. To be noted: 60mg/kg/d YC-6 for 8 weeks; thalamus of the lesion, 8 weeks after gamma knife radiation; Mean±SEM, n=5; normal 1.04±0.047, model 0.31±0.018; P<0.0001 vs model.
Description: as §1, §2

Turning to `C[C@@]12CCCC1C1C[C@@H](O)[C@@]3(O)C[C@@H](O)CC[C@]3(C)C1CC2` (stereo partly drawn) [YC-6, 5α-androst-3β,5,6β-triol], the body weight entry in data set [1] was “without affecting body weight”. Moreover, the Volume of lesion is on record as 12.28 ± 0.63^# mm^3 in data set [2] (60mg/kg/d YC-6 for 2 weeks, then stopped for 6 weeks) and 10.27 ± 1.50^# mm^3 in data set [2] (60mg/kg/d YC-6 for 8 weeks). This compound also returned a Number of astrocytes in data set [3] of 357.00 ± 10.61 Astrocytes/mm^2. Also, in data set [4], the “Number of mature oligodendrocytes” value is 506.40±30.48 Oligodendrocytes/mm^2. The “MAG fluorescence signal intensity” value in data set [5] is 0.44±0.018.
